# Laboratory results: US20210361767A1, “RESCUING CANCER PATIENTS FROM RESISTANCE TO TREATMENT WITH INHIBITORS OF PD-1/PD-L1 INTERACTIONS” (Mayo Foundation for Medical Education and Research, priority 2018, published 2021)
# What was measured:
# Format in all cases: cell-based
# [1] = system: Mel-B7H1 (transgenic melanoma) cells; test: sPD-L1 ELISA of supernatants of Mel-B7H1 cells; settings: FIG. 4D
# Description: Several tumor cell lines were treated with PBS (placebo) or with various protease inhibitors, including matrix metalloprotease inhibitors TAPI-2 and TAPI-0, aspartic protease inhibitor Pepstatin, cysteine protease inhibitor E-64, serine protease inhibitor Aprotinin, combinations of these inhibitors, and an array of other matrix metalloprotease inhibitors. Cell supernatants were queried for sPD-L1 by ELISA as published elsewhere (Frigola et la., supra). In brief, paired mouse IgG2 monoclonal antibodies against extracellular rhB7-H1 were utilized in a capture-detection plate assay using biotinylation and HRP-streptavidin detection. […] Concentrations were determined by optical density measurements along a known standard curve of rhB7-H1. Karpas-299 cells were incubated at 10 MM cells per ml in cell culture media (RPMI plus FBS plus Penicillin/Streptomycin plus buffering reagents) over 24 hours in the presence of 1 μl/100 μl DMSO or PBS (placebo), TAPI-2 at 278 μM, Pepstatin at 206.5 μM, E-64 at 185 μM, or Aprotinin at 220 μM, or a combination of the above materials at various concentrations. […] All statistical analyses were performed using R! software. Two-sided, unpaired Student t tests assessed statistical differences in experimental groups except where otherwise indicated. P values indicate comparison to vehicle control groups. P<0.05 was considered statistically significant. […]
# [2] = system: Dul45 prostate cancer cells; test: sPD-L1 ELISA of supernatants of Dul45 prostate cancer cells; settings: FIG. 4C
# Description: (§1) Several tumor cell lines were treated with PBS (placebo) or with various protease inhibitors, including matrix metalloprotease inhibitors TAPI-2 and TAPI-0, aspartic protease inhibitor Pepstatin, cysteine protease inhibitor E-64, serine protease inhibitor Aprotinin, combinations of these inhibitors, and an array of other matrix metalloprotease inhibitors. Cell supernatants were queried for sPD-L1 by ELISA as published elsewhere (Frigola et la., supra). In brief, paired mouse IgG2 monoclonal antibodies against extracellular rhB7-H1 were utilized in a capture-detection plate assay using biotinylation and HRP-streptavidin detection. […] Concentrations were determined by optical density measurements along a known standard curve of rhB7-H1. Karpas-299 cells were incubated at 10 MM cells per ml in cell culture media (RPMI plus FBS plus Penicillin/Streptomycin plus buffering reagents) over 24 hours in the presence of 1 μl/100 μl DMSO or PBS (placebo), TAPI-2 at 278 μM, Pepstatin at 206.5 μM, E-64 at 185 μM, or Aprotinin at 220 μM, or a combination of the above materials at various concentrations. […] All statistical analyses were performed using R! software. Two-sided, unpaired Student t tests assessed statistical differences in experimental groups except where otherwise indicated. P values indicate comparison to vehicle control groups. P<0.05 was considered statistically significant.
# Further studies were conducted using different types of cells.
# [3] = system: A786-0 (renal cell carcinoma) cells; test: sPD-L1 ELISA of supernatants of A786-0 cells treated with protease inhibitors; settings: A786-0 grown between 1 MM and 10 MM cells per ml; FIG. 4B
# Description: Tumor cells were treated with PBS (placebo) or with various protease inhibitors, including MMP inhibitors TAPI-2 and TAPI-0, aspartic protease inhibitor Pepstatin, cysteine protease inhibitor E-64, serine protease inhibitor Aprotinin, combinations of these inhibitors, and an array of other MMP inhibitors. Cell supernatants were queried for sPD-L1 by ELISA. FIG. 4A, Karpas-299 (lymphoma) cells were treated with the indicated protease inhibitors. FIG. 4B, A786-0 (renal cell carcinoma) cells were treated with the indicated protease inhibitors. FIG. 4C, Dul45 cells were treated with the indicated protease inhibitors. FIG. 4D, Mel-B7H1 (transgenic melanoma) cells were treated with the indicated protease or metalloprotease inhibitors. FIG. 4E is a graph plotting sPD-L1 production induced by interferon treatment or high cell titer in A786-0 cells. Cells grown at 1 MM/ml in control DMSO produced little sPD-L1. […] FIG. 4F is a graph plotting the amount of sPD-L1 in supernatants of Karpas-299 cells treated with control or with varying concentrations of the ADAM10/17 inhibitor aderbasib.
# Several tumor cell lines were treated with PBS (placebo) or with various protease inhibitors, including matrix metalloprotease inhibitors TAPI-2 and TAPI-0, aspartic protease inhibitor Pepstatin, cysteine protease inhibitor E-64, serine protease inhibitor Aprotinin, combinations of these inhibitors, and an array of other matrix metalloprotease inhibitors. Cell supernatants were queried for sPD-L1 by ELISA as published elsewhere (Frigola et la., supra). In brief, paired mouse IgG2 monoclonal antibodies against extracellular rhB7-H1 were utilized in a capture-detection plate assay using biotinylation and HRP-streptavidin detection. […] Concentrations were determined by optical density measurements along a known standard curve of rhB7-H1. […] Two-sided, unpaired Student t tests assessed statistical differences in experimental groups except where otherwise indicated. […]
# Karpas-299 cells [4] = test: PD-L1 flow cytometry of Karpas-299 cells; settings: vs DMSO, FIGS. 7A, 7B
# Description: (§2) FIGS. 7A and 7B are flow cytometry plots and graphs showing that cell PD-L1 expression is restored by treatment with an inhibitor of ADAM10 and/or ADAM17, and is decreased by treatment with exogenous recombinant ADAM10 or ADAM17. Cells were incubated in the presence of the indicated treatments, and PD-L1 flow cytometry was performed.
# Karpas-299 cells [5] = test: sPD-L1 ELISA of supernatants of Karpas-299 cells treated with protease inhibitors; settings: for Karpas-299 production of sB7H1: Example 3, supernatants by ELISA, p<0.0001
# Description: as §1
# Subsequent studies were conducted in which Karpas-299 cells were incubated with different matrix metalloprotease inhibitors with varying specificities. For example, Karpas-299 cells were incubated at 10 MM cells per ml in cell culture media over 24 hours in the presence of 1 μl/100 μl DMSO (control), 50 μM TAPI-2, 50 μM TAPI-0, 50 μM GI254023X, 5 μM Ro 32-3555, 5 μM ARP 101, 50 μM UK 370106, 500 pM MMP-9 inhibitor I, 5 μM Doxycycline, or some combination thereof.
# Aderbasib is a selective inhibitor of matrix metalloproteases ADAM10 and ADAM17. Karpas-299 cells were incubated at 1 MM-10 MM cells/ml and treated for 24 hours with concentrations of aderbasib ranging from 320 pM to […].
# Karpas-299 lymphoma cells producing sB7-H1 were cultured with an array of protease inhibitors. Supernatants from these cultures were isolated and analyzed for sB7H1 concentration by ELISA. Subsequently, activated human CD8+ T cells were cultured with recombinant sB7H1 protein and cell survival was measured at 24 hours. CD8+ T cells also were cultured with sB7H1-rich tumor cell line supernatants versus sB7H1-depleted supernatants over 48 hours in the presence of placebo, low dose (10 nM), or high dose (1 μM) anti-PD-1 antibody pembrolizumab, and cell survival was measured.
# A549 cells [6] = test: PD-L1 flow cytometry of A549 cells; settings: vs DMSO, FIGS. 7C, 7D
# Description: as §2
# PD-L1 mRNA = PD-L1 mRNA expression by RT-PCR in Karpas-299 cells; settings: Karpas-299, TAPI-2 at 278 μM, 24 hours; data not shown
# A549 cells [7] = test: sPD-L1 in supernatants of A549 cells treated with exogenous ADAM17; settings: exogenous ADAM17 vs PBS control, FIG. 4G
Molecule,sPD-L1 expression [1],sPD-L1 secretion versus controls [2],sPD-L1 secretion [3],PD-L1 expression (flow cytometry) (Karpas-299 cells [4]),Karpas-299 production of sB7H1 (Karpas-299 cells [5]),"secretion of sPD-L1 (Karpas-299 cells [5]; Karpas-299, 10 MM cells per ml, 24 hours, TAPI-2 at 278 μM, vs DMSO or PBS, FIG. 4A, p=5.6×10^−12)",PD-L1 expression (flow cytometry) (A549 cells [6]),PD-L1 mRNA expression (RT-PCR) (PD-L1 mRNA),detectable sPD-L1 secreted (A549 cells [7])
CC(C)C[C@H](CC(=O)NO)C(=O)N[C@H](C(=O)N[C@@H](C)C(=O)NCCN)C(C)(C)C [TAPI-2],most significantly reduced,significantly reduced,significantly reduced,restored,inhibited,reduced the secretion of sPD-L1,restored,without reducing PD-L1 mRNA expression,
CNC(=O)[C@@H](NC(=O)[C@H](CCCc1ccccc1)[C@H](C)N(O)C=O)C(C)(C)C [GI254023X],most significantly reduced,,,,inhibited,,,,
"ADAM17 (TACE): commercially-obtained, recombinant form of ADAM17 (TACE)",,,,,,,decreased,,higher amounts
CCN(CC)Cc1cc(C)c(N(Cc2ccccc2)S(=O)(=O)c2ccc(OC)cc2)c(C(=O)NO)c1 [MMPI9],,significantly reduced,,,,,,,
